Structures can show the parent of a compound that is named as a salt.
Experiments:
[1] = Accelerated stability, 40° C./75% RH, five weeks, LDPE bag; type: physicochemical; details: for API chemical purity over the course of the stability study: five weeks; for Assay / Chiral Potency / Total Impurities: HPLC
Description: Upon removal from the chamber, the samples were physically characterized by appearance, KF, TGA, DSC, XRD and PLM. The samples were also analyzed by HPLC for chromatographic purity, chiral integrity and potency. Where applicable, the data presented in the stability portion also includes the original T=0 data for comparison purposes. The data can be seen in Tables 25-29 and FIGS. 40-44.

[2] = Stability on aluminum slide at 40° Celsius/75% RH; type: physicochemical; details: time: I-HS 10 days, HCl 1 hour, HBr 2 weeks, mesylate overnight
[3] = Dynamic vapor sorption (DVS-1 system); type: physicochemical; details: for DVS (outcome): form after or during DVS, HCl at 50-60% RH
Description: For the DVS measurement a sample of crystalline form (I—HS) was cycled through changing humidity conditions to determine its hygroscopicity. The sample was analyzed using a Surface Measurement System DVS-1 Dynamic Vapor Sorption System. […] Data was collected in 1 minute intervals. Nitrogen was used as the carrier gas. […] After completion of the sorption cycle, the sample was dried using the same procedure, but all the way down to 0% RH and finally taken back to the starting point of 20% RH. The weight change during the sorption/desorption cycles were plotted, allowing for the hygroscopic nature of the sample to be determined.

TRKA-SHC1 complexes = assay: TRK-SHC1 proximity ligation assay in CUTO-3 cells; type: cell-based, human; details: 100 nM, 2 hours, versus DMSO
Description: PLAs are unique because they can detect functional signaling complexes between a kinase and one of its adaptors in situ. In this assay, TRKA complexed with its preferred adaptor, SHC1, which binds to Y496 in the TRKA kinase domain, was measured (FIG. 17).
Cells were seeded onto glass coverslips (in a 48 well plate) or chamber slides at 25-75 k cells/well. Cells were treated with the indicated doses and times then fixed for 15 minutes by shaking at room temperature in 4% paraformaldehyde. The cells were rinsed twice in PBS, and then the Duolink® in situ PLA® kit from SigmaAldrich in mouse/rabbit (Red) was used according to the manufacturer's protocol (catalog # DUO92101). The antibody concentrations were optimized using immunofluorescence prior to PLA experiments. […] Additionally, samples were treated with 300 mM glycine for 15 minutes prior to the blocking step, otherwise the assay was performed according to the manufacturer's protocol. The cells were mounted using Prolong® gold anti-fade reagent (with DAPI) and cured overnight prior to imaging. The images were either taken on a Nikon standard inverted fluorescent microscope at 40×, or on the 31 Marianas spinning disc confocal in the University of Colorado Anschutz Medical Campus Advance Light Microscopy Core at 40× or 100×. […]

[4] = test system: TPM3-TRKA, pAKT, and pERK1/2; assay: Immunoblot of phosphorylation in KM12 cells; type: cell-based, human; details: low doses, 2 hours
From the text: (§1) Briefly, cells were lysed in RIPA buffer with Halt Protease and Phosphatase Inhibitor Cocktail (Thermo Scientific) and diluted in loading buffer (LI-COR Biosciences). The membranes were scanned and analyzed using the Odyssey Imaging System and software (LI-COR). The following antibodies were used from Cell Signaling: pTRK Y490 (rabbit polyclonal, #9141), pERK1/2 XP T202/Y204 (#9101), total ERK1/2, pAKT 5473 (rabbit mAb, #4060), and total AKT mouse clone D3A7 (#2920). TRK (C-14) rabbit polyclonal antibody was purchased from Santa Cruz Biotechnology. GAPDH (MAB374) and pTYR (4G10) are from Millipore.

[5] = test system: undifferentiated sarcoma with LMNA-NTRK1 fusion; assay: Phase 1 trial case: patient with undifferentiated sarcoma; type: in vivo, human; details: one patient
From the text: The patient started cycle 1 day 1 three days later. The patient was seen weekly for pharmacokinetic and safety analysis.

[6] = Phase 1 dose escalation study: safety and pharmacokinetics
Description: Response is measured by RECIST Criteria, version 1.1. Serum is collected for pharmacokinetic analysis on Cycle 1 Day 1 and Day 8. Safety information is collected on all patients and the definition of dose-limiting toxicity applies to adverse events regardless of relationship to investigational product.

[7] = test system: xenograph (human) tumor derived from MO-91 cell line; assay: Xenograft tumor growth, MO-91; type: in vivo, mice; details: MO-91 xenograft, oral daily 60 mg/kg or 200 mg/kg
From the text: (§2) The three different cancer cell lines, the CUTO-3F cell line, the KM12 cell line, and the MO-91 cell line, each express a different Trk gene fusion. […] Following implantation of one of these three different xenograph (human) tumors in mice, the change in the volume of each tumor was monitored.

[8] = test system: xenograph (human) tumor derived from KM12 cell line; assay: Xenograft tumor growth, KM12; type: in vivo, mice; details: oral daily 60 mg/kg or 200 mg/kg
From the text: as §2

[9] = Dynamic vapor sorption (IGAsorp analyzer, 25° C.); type: physicochemical
Description: • 1. The hygroscopicity was studied at 25° C. using an IGAsorp analyzer. • 2. About 15 mg of sample was placed in a tared mesh sample holder at an initial ambient room humidity setting of ˜35%. • 3. A total wet/dry nitrogen flow rate of 250 cc/min is used throughout the study. • 4. […] The maximum time allowed at any one humidity set point was 120 min. The sample was maintained under dry N2 after the cycle was completed. Percent weight gain was calculated based on the dry weight basis. Part One: Physical Characterization of Crystalline Form (I—HS)

[10] = test system: solid tumors with NTRK-fusions; assay: Phase 1 study: response (RECIST 1.1) in NTRK-fusion patients; type: in vivo, human; details: 100 or 150 mg BID
Description: Three of the 23 patients harbored NTRK-fusions and were treated at either 100 or 150 mg BID.

[11] = test system: MPRIP-TRKA oncoprotein and ERK1/2; assay: Immunoblot of phosphorylation in CUTO-3F cells; type: cell-based, human; details: low doses, 2 hours
From the text: as §1

[12] = test system: xenograph (human) tumor derived from CUTO-3F cell line; assay: Xenograft tumor growth, CUTO-3F; type: in vivo, mice; details: CUTO-3F xenograft, oral daily 60 mg/kg or 200 mg/kg
From the text: as §2

[13] = test system: TEL-TRKC oncoprotein, pAKT, and pERK1/2; assay: Immunoblot of phosphorylation in MO-91 cells; type: cell-based, human; details: low doses, 2 hours
From the text: FIG. 13 is an immunoblot showing that the crystalline form (I—HS)inhibits TEL-TRKC kinase and ERK1/2 and AKT activity in MO-91 cells.
as §1

For `O=C(Nc1cnn2ccc(N3CCC[C@@H]3c3cc(F)ccc3F)nc12)N1CC[C@H](O)C1.O=S(=O)(O)O` [AM(HS)1, (S)—N-(5-((R)-2-(2,5-difluorophenyl)-pyrrolidin-1-yl)-pyrazolo[1,5-a]pyrimidin-3-yl)-3-hydroxypyrrolidine-1-carboxamide hydrogen sulfate], the “Peak Area Percent, RRT 0.793” value ([1]; 40 C/75% RH, 5 wks.) was 0.00 Peak Area Percent, the “Peak Area Percent, RRT 0.863” value ([1]; 40 C/75% RH, 5 wks.) was 1.04 Peak Area Percent and the “Peak Area Percent, RRT 0.981” value ([1]; 40 C/75% RH, 5 wks.) was 0.12 Peak Area Percent. The “Peak Area Percent, RRT 1.000” value ([1]; 40 C/75% RH, 5 wks.) was 98.83 Peak Area Percent, the “Peak Area Percent, RRT 1.535” value ([1]; 40 C/75% RH, 5 wks.) was 0.00 Peak Area Percent and the KF ([1]; 40° C./75% RH, 5 wks.) was 0.56 w/w %. For the same compound, the “API chemical purity over the course of the stability study” value ([1]; 40° C./75% RH) was “did not change significantly”, the Assay ([1]; 40° C./75% RH, 5 wks.) was 80.3% and the “Chiral Potency” value ([1]; 40° C./75% RH, 5 wks.) was 99.6%. The “Total Impurities” value ([1]; 40° C./75% RH, 5 wks.) was 1.16%, the Assay ([1]; time point 0 wks.) was 79.5% and the “Chiral Potency” value ([1]; time point 0 wks.) was 99.6%. The “Total Impurities” value ([1]; time point 0 wks.) was 1.10%, the Appearance ([1]; time point 0 wks.) was “Yellow Powder free” and the KF ([1]; time point 0 wks.) was 2.00 w/w %. The “Peak Area Percent, RRT 0.793” value ([1]; time point 0 wks.) was 0.00 Peak Area Percent, the “Peak Area Percent, RRT 0.863” value ([1]; time point 0 wks.) was 0.98 Peak Area Percent and the “Peak Area Percent, RRT 0.981” value ([1]; time point 0 wks.) was 0.12 Peak Area Percent. For the same compound, the “Peak Area Percent, RRT 1.000” value ([1]; time point 0 wks.) was 98.89 Peak Area Percent and the “Peak Area Percent, RRT 1.535” value ([1]; time point 0 wks.) was 0.00 Peak Area Percent.

For `Cl.O=C(Nc1cnn2ccc(N3CCC[C@@H]3c3cc(F)ccc3F)nc12)N1CC[C@H](O)C1` [HCl, (S)—N-(5-((R)-2-(2,5-difluorophenyl)pyrrolidin-1-yl)pyrazolo[1,5-a]pyrimidin-3-yl)-3-hydroxypyrrolidine-1-carboxamide hydrochloride], the “Stability at 40° Celsius/75% RH (aluminum slide)” value (shortened to “Stability at 40° Celsius/75% RH”) [2] was “form change” and the “DVS (outcome)” value [3] was “form change”.

For `O=C(Nc1cnn2ccc(N3CCC[C@@H]3c3cc(F)ccc3F)nc12)N1CC[C@H](O)C1.O=S(=O)(O)O` [AM(HS), (S)—N-(5-((R)-2-(2,5-difluorophenyl)-pyrrolidin-1-yl)-pyrazolo[1,5-a]pyrimidin-3-yl)-3-hydroxypyrrolidine-1-carboxamide hydrogen sulfate], the “behaviour when exposed to humidity” value [1] was “deliquesced”.

For `Br.O=C(Nc1cnn2ccc(N3CCC[C@@H]3c3cc(F)ccc3F)nc12)N1CC[C@H](O)C1` [HBr, (S)—N-(5-((R)-2-(2,5-difluorophenyl)pyrrolidin-1-yl)pyrazolo[1,5-a]pyrimidin-3-yl)-3-hydroxypyrrolidine-1-carboxamide hydrobromide], the “Stability at 40° Celsius/75% RH” value [2] was “amorphous” and the “DVS (outcome)” value [3] was “(deliquesced)”.

For `CS(=O)(=O)O.O=C(Nc1cnn2ccc(N3CCC[C@@H]3c3cc(F)ccc3F)nc12)N1CC[C@H](O)C1` [Mesylate, (S)—N-(5-((R)-2-(2,5-difluorophenyl)pyrrolidin-1-yl)pyrazolo[1,5-a]pyrimidin-3-yl)-3-hydroxypyrrolidine-1-carboxamide methanesulfonate], the “Stability at 40° Celsius/75% RH” value [2] was “Deliquesced” and the “DVS (outcome)” value [3] was “(crystalline)”.

For `O=C(Nc1cnn2ccc(N3CCC[C@@H]3c3cc(F)ccc3F)nc12)N1CC[C@H](O)C1` [crystalline form (I—HS), (S)—N-(5-((R)-2-(2,5-difluorophenyl)-pyrrolidin-1-yl)-pyrazolo[1,5-a]pyrimidin-3-yl)-3-hydroxypyrrolidine-1-carboxamide hydrogen sulfate], the “Peak Area Percent, RRT 0.793” value ([1]; 40 C/75% RH, 5 wks.) was 0.07 Peak Area Percent, the “Peak Area Percent, RRT 0.863” value ([1]; 40 C/75% RH, 5 wks.) was 0.00 Peak Area Percent and the “Peak Area Percent, RRT 0.981” value ([1]; 40 C/75% RH, 5 wks.) was 0.00 Peak Area Percent. The “Peak Area Percent, RRT 1.000” value ([1]; 40 C/75% RH, 5 wks.) was 99.93 Peak Area Percent, the “Peak Area Percent, RRT 1.535” value ([1]; 40 C/75% RH, 5 wks.) was 0.00 Peak Area Percent and the Appearance ([1]; 40° C./75% RH, 5 wks.) was “Orange Powder free”. The KF ([1]; 40° C./75% RH, 5 wks.) was 0.21 w/w %, the “API chemical purity over the course of the stability study” value ([1]; 40° C./75% RH) was “did not change significantly” and the Assay ([1]; 40° C./75% RH, 5 wks.) was 79.6%. The “Chiral Potency” value ([1]; 40° C./75% RH, 5 wks.) was 99.6%, the “Total Impurities” value ([1]; 40° C./75% RH, 5 wks.) was 0.07% and the Assay ([1]; time point 0 wks.) was 79.4%. For the same compound, the “Chiral Potency” value ([1]; time point 0 wks.) was 99.6%, the “Total Impurities” value ([1]; time point 0 wks.) was 0.14% and the Appearance ([1]; time point 0 wks.) was “Orange Powder free”. The KF ([1]; time point 0 wks.) was 0.28 w/w %, the “Peak Area Percent, RRT 0.793” value ([1]; time point 0 wks.) was 0.07 Peak Area Percent and the “Peak Area Percent, RRT 0.863” value ([1]; time point 0 wks.) was 0.00 Peak Area Percent. The “Peak Area Percent, RRT 0.981” value ([1]; time point 0 wks.) was 0.00 Peak Area Percent, the “Peak Area Percent, RRT 1.000” value ([1]; time point 0 wks.) was 99.86 Peak Area Percent and the “Peak Area Percent, RRT 1.535” value ([1]; time point 0 wks.) was 0.07 Peak Area Percent. The “effect on TRKA-SHC1 complexes (PLA)” value (TRKA-SHC1 complexes) was “disruption of TRKA-SHC1 complexes”, the “inhibition of phosphorylation of TPM3-TRKA, pAKT, and pERK1/2” value [4] was “inhibition” and the “Stability at 40° Celsius/75% RH” value [2] was “No form change”. For the same compound, the “response by RECIST 1.1” value ([5]; 100 mg twice daily, CT prior to cycle 2 and cycle 3) was “partial response”, the drug-related adverse events ([5]; 4-week period of cycle 1) was “No drug-related adverse events” and the “adverse events attributed to the drug” value ([5]; after four months of dosing) was “did not have any adverse events”. For the same compound, the oxygen saturation ([5]; on room air, after treatment (baseline 90% with 5 L oxygen)) was 97%, the CA125 levels ([5]; over cycle 1) was “normalized” and the “adverse event: Grade 1 and 2 anemia” value ([6]; 23 patients) was 22%. The “adverse event: Grade 1 and 2 dizziness” value ([6]; 23 patients) was 26%, the “adverse event: Grade 1 and 2 fatigue” value ([6]; 23 patients) was 35% and the “patients with dose limiting toxicities” value ([6]; elevated AST grade 3 (150 mg BID), delirium grade 3 unrelated (100 mg BID)) was “Two”. For the same compound, the “growth of xenograft tumor” value [7] was “effectively halt the growth, or decrease the rate of growth”, the “growth of xenograft tumor” value [8] was “effectively halt the growth, or decrease the rate of growth” and the “hygroscopicity (DVS)” value [9] was “not hygroscopic”. For the same compound, the “response of the three NTRK-fusion patients” value [10] was “partial response”, the “inhibition of phosphorylation of the MPRIP-TRKA oncoprotein and ERK1/2” value [11] was “inhibition” and the “growth of xenograft tumor” value [12] was “effectively halt the growth, or decrease the rate of growth”. The “inhibition of phosphorylation of the TEL-TRKC oncoprotein, pAKT, and pERK1/2” value [13] was “inhibition”, the “hygroscopicity (DVS)” value [3] was “non-hygroscopic” and the “increase in mass during the sorption cycle” value ([3]; between 0% and 90% RH) was “about 1.7%”. The “DVS (outcome)” value [3] was “RH No change”.
